tested on: Respiratory syncytial virus (RSV) strain A2; test: Hep-2 RSV2 384-well assay (EC50-HEP2-384); format: cell-based; conditions: HEp-2 cells, RSV A2, MOI=4, 4 days, Table 3

| Structure (SMILES) | EC50 [nM] |
| --- | --- |
| CC(=O)O[C@H]1[C@@H](OC(C)=O)[C@](C#N)(c2ccc3c(N)ncnn23)O[C@@H]1COP(=O)(N[C@@H](C)C(=O)OC1CC2(CCCC2)C1)Oc1ccc(C(C)(C)C)cc1 (stereo partly drawn) [Example 98b, (2R,3R,4R,5R)-2-(4-aminopyrrolo[2,1-f][1,2,4]triazin-7-yl)-5-((((4-(tert-butyl)phenoxy)(((S)-1-oxo-1-(spiro[3.4]octan-2-yloxy)propan-2-yl)amino)phosphoryl)oxy)methyl)-2-cyanotetrahydrofuran-3,4-diyl Diacetate] | 52.2 |
| CCC(CC)COC(=O)[C@H](C)N[P@](=O)(OC[C@H]1O[C@@](C#N)(c2ccc3c(N)ncnn23)[C@H](OC(C)=O)[C@@H]1OC(C)=O)Oc1cccc2c1CCCC2 [Example 143, (2R,3R,4R,5R)-2-(4-aminopyrrolo[2,1-f][1,2,4]triazin-7-yl)-2-cyano-5-((((S)—(((S)-1-(2-ethylbutoxy)-1-oxopropan-2-yl)amino)((5,6,7,8-tetrahydronaphthalen-1-yl)oxy)phosphoryl)oxy)methyl)tetrahydrofuran-3,4-diyl Diacetate] | 737 |
| CCCOC(=O)[C@H](C)NP(=O)(OC[C@H]1O[C@@](C#N)(c2ccc3c(N)ncnn23)[C@H](OC(=O)C(C)C)[C@@H]1OC(=O)C(C)C)Oc1ccc(C(C)(C)C)cc1 (single isomer, unassigned) [Example 48b] | 55.4 |
| CCC(CC)COC(=O)[C@H](C)NP(=O)(OC[C@H]1O[C@@](C#N)(c2ccc3c(N)ncnn23)[C@H](O)[C@@H]1O)Oc1cccc2c1CCCC2 (single isomer, unassigned) [Example 136] | 377 |
| C[C@H](NP(=O)(OC[C@H]1O[C@@](C#N)(c2ccc3c(N)ncnn23)[C@H](O)[C@@H]1O)Oc1ccc(C(C)(C)C)cc1)C(=O)OC1CCC1 (single isomer, unassigned) [Example 31b] | 41.1 |
| C[C@H](NP(=O)(OC[C@H]1O[C@@](C#N)(c2ccc3c(N)ncnn23)[C@H](O)[C@@H]1O)Oc1ccc(C(C)(C)C)cc1)C(=O)OCC1CC1 (stereo partly drawn) [Example 101b, Cyclopropyl methyl ((((2R,3S,4R,5R)-5-(4-aminopyrrolo[2,1-f][1,2,4]triazin-7-yl)-5-cyano-3,4-dihydroxytetrahydrofuran-2-yl)methoxy)(4-(tert-butyl)phenoxy)phosphoryl)-L-alaninate] | 79.2 |

same assay, conditions: human respiratory syncytial virus, HEp-2, 96 h, HEp-2 cells, RSV A2, MOI=4, 4 days, Table 3

| Structure (SMILES) | EC50 [nM] |
| --- | --- |
| COCCOC(=O)[C@H](C)NP(=O)(OC[C@H]1O[C@@](C#N)(c2ccc3c(N)ncnn23)[C@H](OC(=O)C(C)C)[C@@H]1OC(=O)C(C)C)Oc1ccc(C(C)(C)C)cc1 (stereo partly drawn) [Example 151, (2R,3R,4R,5R)-2-(4-aminopyrrolo[2,1-f][1,2,4]triazin-7-yl)-5-((((4-(tert-butyl)phenoxy)(((S)-1-(2-methoxyethoxy)-1-oxopropan-2-yl)amino)phosphoryl)oxy)methyl)-2-cyanotetrahydrofuran-3,4-diyl bis(2-methylpropanoate)] | 55.6 |
| C[C@H](NP(=O)(OC[C@H]1O[C@@](C#N)(c2ccc3c(N)ncnn23)[C@H](O)[C@@H]1O)Oc1ccc(C(C)(C)C)cc1)C(=O)OC1CC2(CCCC2)C1 (stereo partly drawn) [Example 97a, Spiro[3.4]octan-2-yl ((((2R,3S,4R,5R)-5-(4-aminopyrrolo[2,1-f][1,2,4]triazin-7-yl)-5-cyano-3,4-dihydroxytetrahydrofuran-2-yl)methoxy)(4-(tert-butyl)phenoxy)phosphoryl)-L-alaninate] | 103 |
| COC(C)(C)COC(=O)[C@H](C)NP(=O)(OC[C@H]1O[C@@](C#N)(c2ccc3c(N)ncnn23)[C@H](OC(C)=O)[C@@H]1OC(C)=O)Oc1ccc(C(C)(C)C)cc1 (stereo partly drawn) [Example 131, (2R,3R,4R,5R)-2-(4-aminopyrrolo[2,1-f][1,2,4]triazin-7-yl)-5-((((4-(tert-butyl)phenoxy)(((S)-1-(2-methoxy-2-methylpropoxy)-1-oxopropan-2-yl)amino)phosphoryl)oxy)methyl)-2-cyanotetrahydrofuran-3,4-diyl Diacetate] | 56.2 |
| CCC(CC)COC(=O)[C@H](C)N[P@](=O)(OC[C@H]1O[C@@](C#N)(c2ccc3c(N)ncnn23)[C@H](OC(=O)C(C)C)[C@@H]1OC(=O)C(C)C)Oc1cccc2c1CCCC2 [Example 144, (2R,3R,4R,5R)-2-(4-aminopyrrolo[2,1-f][1,2,4]triazin-7-yl)-2-cyano-5-((((S)—(((S)-1-(2-ethylbutoxy)-1-oxopropan-2-yl)amino)((5,6,7,8-tetrahydronaphthalen-1-yl)oxy)phosphoryl)oxy)methyl)tetrahydrofuran-3,4-diyl bis(2-methylpropanoate)] | 780 |
| CCOC(=O)[C@H](C)NP(=O)(OC[C@H]1O[C@@](C#N)(c2ccc3c(N)ncnn23)[C@H](OC(C)=O)[C@@H]1OC(C)=O)Oc1ccc(C(C)(C)C)cc1 (stereo partly drawn) [Example 157, (2R,3R,4R,5R)-2-(4-aminopyrrolo[2,1-f][1,2,4]triazin-7-yl)-5-((((4-(tert-butyl)phenoxy)(((S)-1-ethoxy-1-oxopropan-2-yl)amino)phosphoryl)oxy)methyl)-2-cyanotetrahydrofuran-3,4-diyl Diacetate] | 79.5 |
| COC(C)COC(=O)[C@H](C)NP(=O)(OC[C@H]1O[C@@](C#N)(c2ccc3c(N)ncnn23)[C@H](O)[C@@H]1O)Oc1ccc(C(C)(C)C)cc1 (stereo partly drawn) [Example 155, 2-methoxypropyl ((((2R,3S,4R,5R)-5-(4-aminopyrrolo[2,1-f][1,2,4]triazin-7-yl)-5-cyano-3,4-dihydroxytetrahydrofuran-2-yl)methoxy)(4-(tert-butyl)phenoxy)phosphoryl)-L-alaninate] | 683 |
| CCC(CC)COC(=O)[C@H](C)NP(=O)(OC[C@H]1O[C@@](C#N)(c2ccc3c(N)ncnn23)[C@H](O)[C@@H]1O)Oc1ccc2c(c1)CCCC2 (stereo partly drawn) [Example 129, 2-ethylbutyl ((((2R,3S,4R,5R)-5-(4-aminopyrrolo[2,1-f][1,2,4]triazin-7-yl)-5-cyano-3,4-dihydroxytetrahydrofuran-2-yl)methoxy)((5,6,7,8-tetrahydronaphthalen-2-yl)oxy)phosphoryl)-L-alaninate] | 362 |
| CCOC(=O)[C@H](C)NP(=O)(OC[C@H]1O[C@@](C#N)(c2ccc3c(N)ncnn23)[C@H](OC(=O)CC(C)C)[C@@H]1OC(=O)CC(C)C)Oc1ccc(C(C)(C)C)cc1 (stereo partly drawn) [Example 158, (2R,3R,4R,5R)-2-(4-aminopyrrolo[2,1-f][1,2,4]triazin-7-yl)-5-((((4-(tert-butyl)phenoxy)(((S)-1-ethoxy-1-oxopropan-2-yl)amino)phosphoryl)oxy)methyl)-2-cyanotetrahydrofuran-3,4-diyl bis(3-methylbutanoate)] | 272 |
| COCCOC(=O)[C@H](C)NP(=O)(OC[C@H]1O[C@@](C#N)(c2ccc3c(N)ncnn23)[C@H](OC(C)=O)[C@@H]1OC(C)=O)Oc1ccc(C(C)(C)C)cc1 (stereo partly drawn) [Example 150, (2R,3R,4R,5R)-2-(4-aminopyrrolo[2,1-f][1,2,4]triazin-7-yl)-5-((((4-(tert-butyl)phenoxy)(((S)-1-(2-methoxyethoxy)-1-oxopropan-2-yl)amino)phosphoryl)oxy)methyl)-2-cyanotetrahydrofuran-3,4-diyl Diacetate] | 78.2 |
| CCC(=O)O[C@H]1[C@@H](OC(=O)CC)[C@](C#N)(c2ccc3c(N)ncnn23)O[C@@H]1COP(=O)(N[C@@H](C)C(=O)OC1CC2(CCCC2)C1)Oc1ccc(C(C)(C)C)cc1 (stereo partly drawn) [Example 99a, (2R,3R,4R,5R)-2-(4-aminopyrrolo[2,1-f][1,2,4]triazin-7-yl)-5-((((4-(tert-butyl)phenoxy)(((S)-1-oxo-1-(spiro[3.4]octan-2-yloxy)propan-2-yl)amino)phosphoryl)oxy)methyl)-2-cyanotetrahydrofuran-3,4-diyl Dipropionate] | 81.7 |
| CCC(CC)COC(=O)[C@H](C)NP(=O)(OC[C@H]1O[C@@](C#N)(c2ccc3c(N)ncnn23)[C@H](OC(=O)C(C)C)[C@@H]1OC(=O)C(C)C)Oc1ccc2c(c1)CCCC2 (stereo partly drawn) [Example 132, (2R,3R,4R,5R)-2-(4-aminopyrrolo[2,1-f][1,2,4]triazin-7-yl)-2-cyano-5-((((((S)-1-(2-ethylbutoxy)-1-oxopropan-2-yl)amino)((5,6,7,8-tetrahydronaphthalen-2-yl)oxy)phosphoryl)oxy)methyl) tetrahydrofuran-3,4-diyl bis(2-methylpropanoate)] | 126 |
| CCC(CC)COC(=O)[C@H](C)NP(=O)(OC[C@H]1O[C@@](C#N)(c2ccc3c(N)ncnn23)[C@H](OC(C)=O)[C@@H]1OC(C)=O)Oc1ccc(OC2CCCCC2)cc1 (stereo partly drawn) [Example 152, (2R,3R,4R,5R)-2-(4-aminopyrrolo[2,1-f][1,2,4]triazin-7-yl)-2-cyano-5-((((4-(cyclohexyloxy)phenoxy)(((S)-1-(2-ethylbutoxy)-1-oxopropan-2-yl)amino)phosphoryl)oxy)methyl)tetrahydrofuran-3,4-diyl Diacetate] | 211 |
| CC(C)COC(=O)[C@H](C)NP(=O)(OC[C@H]1O[C@@](C#N)(c2ccc3c(N)ncnn23)[C@H](OC(=O)CC(C)C)[C@@H]1OC(=O)CC(C)C)Oc1ccc(C(C)(C)C)cc1 (stereo partly drawn) [Example 139, (2R,3R,4R,5R)-2-(4-aminopyrrolo[2,1-f][1,2,4]triazin-7-yl)-5-((((4-(tert-butyl)phenoxy)(((S)-1-isobutoxy-1-oxopropan-2-yl)amino)phosphoryl)oxy)methyl)-2-cyanotetrahydrofuran-3,4-diyl bis(3-methylbutanoate)] | 194 |
| CCC(CC)COC(=O)[C@H](C)NP(=O)(OC[C@H]1O[C@@](C#N)(c2ccc3c(N)ncnn23)[C@H](OC(=O)C(C)C)[C@@H]1OC(=O)C(C)C)Oc1ccc(OC2CCCCC2)cc1 (stereo partly drawn) [Example 153, (2R,3R,4R,5R)-2-(4-aminopyrrolo[2,1-f][1,2,4]triazin-7-yl)-2-cyano-5-((((4-(cyclohexyloxy)phenoxy)(((S)-1-(2-ethylbutoxy)-1-oxopropan-2-yl)amino)phosphoryl)oxy)methyl)tetrahydrofuran-3,4-diyl bis(2-methylpropanoate)] | 270 |

Reference: US12404289B2 (Gilead Sciences, Inc., priority 2020, dated 2025)
